Reference: patent US9409922B2, “Imidazopyridine macrocycles as inhibitors of human immunodeficiency virus replication” (priority 2014, dated 2016)

System: NL-RLuc virus
Assay: Inhibition of HIV replication: NL-RLuc reporter virus in MT-2 cells, luciferase readout
Type: cell-based
Details: MT-2 cells infected with NL-RLuc virus, 5 days of incubation, 10% FBS, at least 2 experiments
Outline: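 Renilla luciferase reporter virus (NL4-3 nef replaced), produced in 293T cells, infected MT-2 cells with serial compound dilutions for 5 days in RPMI 1640 with 10% FBS, 10 mM HEPES pH 7.55. Luciferase measured; EC50 from median effect equation, at least 2 experiments.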

[1] = Human immunodeficiency virus 1, MT2, 120 h

SMILES | EC50 [1] [nM] | EC50 [nM]
Cc1cc2nc3cn2c(c1[C@H](OC(C)(C)C)C(=O)O)N1CCC(C)(CC1)OCCCC[C@H](C)Oc1cc(F)ccc1-c1cccc-3c1 [Example 7, (2S)-2-(tert-Butoxy)-2-[(22S)-4,17,22,28-tetramethyl-21,27-dioxa-1,7,34-triazahexacyclo[26.2.2.1^6,^9.1^10,^14.0^2,^7.0^15,^20]tetratriaconta-2,4,6(34),8,10(33),11,13,15(20),16,18-decaen-3-yl]acetic acid] | 5 | –
Cc1cc2c(cc1F)-c1cccc(c1)-c1nc3cc(C)c([C@H](OC(C)(C)C)C(=O)O)c(n3c1Br)N1CCC(C)(CC1)OCCCC[C@H](C)O2 [Example 28, (2S)-2-[(22S)-8-Bromo-17-fluoro-4,18,22,28-tetramethyl-21,27-dioxa-1,7,34-triazahexacyclo[26.2.2.1^6,^9.1^10,^14.0^2,^7.0^15,^20]tetratriaconta-2,4,6(34),8,10(33),11,13,15(20),16,18-decaen-3-yl]-2-(tert-butoxy)acetic acid] | – | 8
Cc1c([C@H](OC(C)(C)C)C(=O)O)c2n3cc(nc3c1-c1ccncc1)-c1cccc(c1)-c1cc(F)ccc1O[C@@H](C)CCCCOC1(C)CCN2CC1 [Example 39, (2S)-2-(tert-Butoxy)-2-[(22S)-17-fluoro-4,22,28-trimethyl-5-(pyridin-4-yl)-21,27-dioxa-1,7,34-triazahexacyclo[26.2.2.1^6,^9.1^10,^14.0^2,^7.0^15,^20]tetratriaconta-2,4,6(34),8,10(33),11,13,15(20),16,18-decaen-3-yl]acetic acid] | 12 | –
Cc1c([C@H](OC(C)(C)C)C(=O)O)c2n3cc(nc3c1CO)-c1cccc(c1)-c1cc(F)ccc1O[C@@H](C)CCCCOC1(C)CCN2CC1 [Example 53, (2S)-2-(tert-Butoxy)-2-[(22S)-17-fluoro-5-(hydroxymethyl)-4,22,28-trimethyl-21,27-dioxa-1,7,34-triazahexacyclo[26.2.2.1^6,^9.1^10,^14.0^2,^7.0^15,^20]tetratriaconta-2,4,6(34),8,10(33),11,13,15(20),16,18-decaen-3-yl]acetic acid] | 8 | –
Cc1cc2c(cc1F)-c1cccc(c1)-c1nc3c(Br)c(C)c([C@H](OC(C)(C)C)C(=O)O)c(n3c1Cl)N1CCC(C)(CC1)OCCCC[C@H](C)O2 [Example 29, (2S)-2-[(22S)-5-Bromo-8-chloro-17-fluoro-4,18,22,28-tetramethyl-21,27-dioxa-1,7,34-triazahexacyclo[26.2.2.1^6,^9.1^10,^14.0^2,^7.0^15,^20]tetratriaconta-2,4,6(34),8,10(33),11,13,15(20),16,18-decaen-3-yl]-2-(tert-butoxy)acetic acid] | 30 | –
